Measured values: the supplement of paper PMC10307832

Columns and labels:
Experiment in all cases: relative viability (nuclei count vs DMSO), 5 days (fraction); higher = more cells survive
[1] = compound: COc1cc2nccc(Oc3ccc(NC(=O)C4(C(=O)Nc5ccc(F)cc5)CC4)cc3)c2cc1OC [Cabozantinib] + Cc1nc(Nc2ncc(C(=O)Nc3c(C)cccc3Cl)s2)cc(N2CCN(CCO)CC2)n1 [Dasatinib] (partner 0.075 µM)
Procedure, shortened: (§1)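 Relative viability equals treated-well nuclei counts divided by vehicle-well nuclei counts. Counts came from 4× images of lung cancer cell lines grown in 1536-well plates for 5 days after pin-tool dosing on the day after seeding. Dosing used one drug alone or a fixed anchor-drug dose plus five library-drug doses (not always all listed) in √10 steps, and values are medians of duplicate plates.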

[2] = compound: COc1cc2nccc(Oc3ccc(NC(=O)C4(C(=O)Nc5ccc(F)cc5)CC4)cc3)c2cc1OC [Cabozantinib] + CC(=O)Nc1cccc(-n2c(=O)n(C3CC3)c(=O)c3c(Nc4ccc(I)cc4F)n(C)c(=O)c(C)c32)c1 [Trametinib] (partner 0.02 µM)
Procedure, shortened: as §1

[3] = compound: C1=CC(=CC=C1NC(=S)NNC2=C(C=C(C=C2[N+](=O)[O-])C(F)(F)F)[N+](=O)[O-])F [Kobe2602] + CS(=O)(=O)CCNCc1ccc(-c2ccc3ncnc(Nc4ccc(OCc5cccc(F)c5)c(Cl)c4)c3c2)o1 [Lapatinib] (partner 2 µM)
Procedure, shortened: as §1

[4] = compound: COc1cc2nccc(Oc3ccc(NC(=O)C4(C(=O)Nc5ccc(F)cc5)CC4)cc3)c2cc1OC [Cabozantinib] + CS(=O)(=O)CCNCc1ccc(-c2ccc3ncnc(Nc4ccc(OCc5cccc(F)c5)c(Cl)c4)c3c2)o1 [Lapatinib] (partner 2 µM)
Procedure, shortened: as §1

Cell Line	relative viability ([1]; first compound 0.02 µM)	relative viability ([1]; first compound 0.06325 µM)	relative viability ([1]; first compound 0.2 µM)	relative viability ([1]; first compound 0.6325 µM)	relative viability ([1]; first compound 2 µM)	relative viability ([2]; first compound 0.02 µM)	relative viability ([2]; first compound 0.06325 µM)	relative viability ([2]; first compound 0.2 µM)	relative viability ([2]; first compound 0.6325 µM)	relative viability ([2]; first compound 2 µM)	relative viability ([3]; first compound 0.2 µM)	relative viability ([3]; first compound 0.6325 µM)	relative viability ([3]; first compound 2 µM)	relative viability ([3]; first compound 6.325 µM)	relative viability ([3]; first compound 20 µM)	relative viability ([4]; first compound 0.06325 µM)	relative viability ([4]; first compound 0.2 µM)	relative viability ([4]; first compound 0.6325 µM)	relative viability ([4]; first compound 2 µM)	relative viability ([4]; first compound 0.02 µM)
LCLC-97TM1	0.723	0.854	0.757	0.848	0.717	0.197	0.236	0.214	0.212	0.19	1.05	1.01	0.817	0.965	0.893	1.21	0.927	1.13	1.09	
NCI-H2087	0.694	0.957	0.823	0.78	0.557	0.166	0.258	0.216	0.195	0.209	0.879	1.01	1.26	0.957	1.04	1.18	1.02	1.01	0.982	1.09
NCI-H647	0.281	0.17	0.201	0.147	0.136	0.541	0.451	0.449	0.424	0.41	1.09	0.937	0.943	0.938	1.01	1.45	1.15	1.13	0.734	1.29
Calu-6											1.08	1.14	1.1	1.04	0.995	1.2	1.15	0.986	1.05	1.14
LCLC-103H	0.34	0.552	0.398	0.486	0.378	0.716	0.709	0.678	0.68	0.667										
HCC-15	0.548	0.717	0.651	0.568	0.598	0.417	0.373	0.36	0.356	0.314	0.856	0.937	0.81	0.863	0.809	0.879	0.783	0.843	0.965	0.85
H3255	0.382	0.513		0.459	0.309	0.687	0.639		0.749	0.64	0.244	0.301	0.234	0.25	0.239	0.234		0.366	0.217	0.182
NCI-H1915	0.32	0.316	0.294	0.352	0.322	0.331	0.345	0.335	0.304	0.28	0.998	1.04	0.969	1.02	1.03	0.987	0.967	0.999	0.989	0.946
NCI-H1650	0.261	0.292	0.294	0.303	0.225	0.656	0.615	0.391	0.643	0.691	0.833	1.07	0.773	0.941	0.875	0.916	0.904	0.708	0.568	0.788
NCI-H661	0.732	0.838	0.724	0.767	0.772	0.542	0.653	0.579	0.572	0.605	0.627	0.601	0.537	0.434	0.567	0.467	0.502	0.449	0.343	0.46
NCI-H2126	0.497	0.625	0.624	0.634	0.573	0.534	0.594	0.568	0.589	0.578	0.751	0.775	0.778	0.725	0.759	0.843	0.723	0.75	0.77	0.612
PC-14	0.219	0.339	0.0309	0.246	0.195	0.81	0.955		0.755	0.685	0.31	0.426	0.294	0.333	0.306	0.3		0.273	0.27	0.27
NCI-H522	0.726	0.898	0.93	0.846	1.04	0.823	0.819	0.78	0.861	0.69										
HCC-44						1.04	1.15	1.21	1.06	1.04	1	1.05	1.01	1.03	0.954	1.12	1	1.11	1.04	1.09
ChaGo-K-1	0.552	0.652	0.519	0.634	0.542	0.838	0.906	0.928	0.893	0.899										
NCI-H1648						0.501	0.448		0.672	0.419										
NCI-H1703											0.903	0.975	0.925	0.982	0.694	0.587	0.337	0.282	0.231	
EBC-1											0.211	0.201	0.204	0.227	0.208	0.17	0.242	0.195	0.213	0.192
NCI-H1563	0.386	0.424	0.43	0.498	0.452						0.912	1.37	1.03	1.04	1.02	0.966	1.04	0.844	1.21	0.946
IA-LM											0.584	0.614	0.732	0.805	0.811	0.91	1.02	0.946	0.808	0.92
ABC-1	0.515	0.567	0.596	0.55	0.525						1.5	1.24	1.11	1.22	1.27	1.1	1.11	1.1	1.13	1.42
